Assay results from ChEMBL document CHEMBL1201862, “PubChem BioAssay data set” (2004).
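Where inhibition never reached the appropriate level, the endpoint shown equals the highest concentration tested. Otherwise, values were interpolated linearly from a five-concentration, 48-hour dose response in 96-well plates. At the GI50, growth is halved.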 Activity calls are given as the source filed them. Cut-off read from the data, not from the text of the source: active = GI50 up to about 1.1 µM and inactive = higher.

Key:
Assay in all cases: NCI anticancer screen, dose series, 48 h
DMS-114 = tested on: DMS-114
DMS-273 = tested on: DMS-273
DLD-1 = tested on: DLD-1
RXF 631 = tested on: RXF 631
KM-20L2 = tested on: KM-20L2
M19-MEL = tested on: M19-MEL
XF498 = tested on: XF498
LXFL 529 = tested on: LXFL 529
HOP-18 = tested on: HOP-18

| Structure (SMILES) | GI50 (DMS-114) | GI50 (DMS-273) | GI50 (DLD-1) | GI50 (RXF 631) | GI50 (KM-20L2) | GI50 (M19-MEL) | GI50 (XF498) | GI50 (LXFL 529) | GI50 (HOP-18) |
| --- | --- | --- | --- | --- | --- | --- | --- | --- | --- |
| COC(=O)c1cc(CNCCc2c[nH]c3ccccc23)on1 | > 100 µM (inactive) | > 100 µM (inactive) | > 100 µM (inactive) | > 100 µM (inactive) | > 100 µM (inactive) | > 100 µM (inactive) | 23.1 µM (inactive) | > 100 µM (inactive) | – |
| CCN(CC)CCSc1nc2cccc([N+](=O)[O-])c2[nH]1 | > 100 µM (inactive) | > 100 µM (inactive) | – | > 100 µM (inactive) | – | > 100 µM (inactive) | > 100 µM (inactive) | > 100 µM (inactive) | – |
| Cn1c2c([N+](=O)[O-])[se]nc2c(=O)n1-c1ccc([N+](=O)[O-])cc1 | 0.254 µM (active) | 2.5 µM (inactive) | 0.746 µM (active) | 1.5 µM (inactive) | 6.9 µM (inactive) | – | 2.26 µM (inactive) | 1.25 µM (inactive) | 2.82 µM (inactive) |
| NC(=O)c1ncn(C2OC(CO)C(O)C2O)c1NC(=S)NC(=O)c1ccccc1 (configuration not stated) | > 100 µM (inactive) | > 100 µM (inactive) | > 100 µM (inactive) | – | > 100 µM (inactive) | > 100 µM (inactive) | – | > 100 µM (inactive) | – |
| Cc1cc(C)nc(NS(=O)(=O)c2ccc(Nc3c4ccccc4nc4c(C(=O)N5CCN(CCOS(C)(=O)=O)CC5)ccc(Cl)c34)cc2)n1 | > 100 µM (inactive) | > 100 µM (inactive) | > 100 µM (inactive) | > 100 µM (inactive) | > 100 µM (inactive) | > 100 µM (inactive) | > 100 µM (inactive) | – | – |
| CCCc1onc(CCC(=O)N(Cc2ccccc2)Cc2ccccc2)c1CC | > 100 µM (inactive) | > 100 µM (inactive) | > 100 µM (inactive) | > 100 µM (inactive) | > 100 µM (inactive) | > 100 µM (inactive) | > 100 µM (inactive) | > 100 µM (inactive) | – |
| CCCCCCCCCCCC1CCCC(C)N1 (configuration not stated) | 56.2 µM (inactive) | 65.2 µM (inactive) | 24.5 µM (inactive) | – | 29 µM (inactive) | 56.2 µM (inactive) | 47.4 µM (inactive) | – | 87.9 µM (inactive) |
| CC1=C(Oc2ccccc2)C(CCC(=O)O)c2c(O)cc(Cl)c(O)c21 (configuration not stated) | > 100 µM (inactive) | > 100 µM (inactive) | > 100 µM (inactive) | > 100 µM (inactive) | > 100 µM (inactive) | > 100 µM (inactive) | > 100 µM (inactive) | – | – |
